This note sets out measurements from ChEMBL document CHEMBL1201862, “PubChem BioAssay data set” (2004).

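Protocol summary: plate cells (96-well), add compound at 5 concentrations, incubate 48 h, interpolate endpoints linearly. GI50: concentration for 50% inhibition of growth.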 Active and inactive are the calls of the source. Rule as the data show it: active = GI50 up to about 1.1 µM and inactive = higher. Where only a bound is given, the exact number is not on record here.

Among the test systems are 786-0; A498; A549; CCRF-CEM; EKVX; LOX IMVI; M14; MDA-MB-435; Malme-3M; NCI-H226; NCI-H23; NCI/ADR-RES; OVCAR-4; OVCAR-8; SK-MEL-28; SK-MEL-2; SN12C; TK-10; UACC-62; UO-31.
Test in all cases: NCI tumour cell line growth inhibition, 48 h

Consider `CC(C)c1nc(Cl)nc(Cl)c1Cl`, for which the GI50 in the experiment on 786-0 was 0.104 µM (active); in the experiment with A498, 3.27 µM (inactive); in the experiment with A549, 1.58 µM (inactive); in the experiment on CCRF-CEM it was < 0.01 µM (active); in the experiment on EKVX, 1.63 µM (inactive); in the experiment on LOX IMVI, < 0.0365 µM (active). For the same compound, the GI50 is 0.0843 µM (active) with M14; 0.241 µM (active) in the experiment with MDA-MB-435; 0.304 µM (active) with Malme-3M; 2.27 µM (inactive) in the experiment on NCI-H226; 0.474 µM (active) with NCI-H23; 0.295 µM (active) in the experiment on NCI/ADR-RES. Also, the GI50 is 0.249 µM (active) with OVCAR-4; 0.436 µM (active) in the experiment with OVCAR-8; 0.357 µM (active) in the experiment with SK-MEL-28; 0.239 µM (active) with SK-MEL-2; 0.482 µM (active) in the experiment on SN12C; 0.468 µM (active) in the experiment with TK-10. The GI50 is 0.266 µM (active) in the experiment on UACC-62 and 0.0711 µM (active) in the experiment on UO-31.
With `NS(=O)(=O)c1cc(C(=O)O)c(O)c2ccccc12`, the GI50 in the experiment with 786-0, in the experiment on A498, with A549, in the experiment on CCRF-CEM, in the experiment with EKVX and in the experiment on LOX IMVI was > 100 µM (inactive) each time. Also, the GI50 in the experiment on M14 was > 100 µM (inactive); in the experiment on MDA-MB-435 it was > 100 µM (inactive); in the experiment with Malme-3M, 92 µM (inactive); in the experiment with NCI-H226, > 100 µM (inactive); in the experiment with NCI-H23 it was > 100 µM (inactive); in the experiment on NCI/ADR-RES, > 100 µM (inactive). The GI50 in the experiment with OVCAR-4, with OVCAR-8, in the experiment with SK-MEL-28, with SK-MEL-2, with SN12C and in the experiment with TK-10 was > 100 µM (inactive) each time. For the same compound, the GI50 in the experiment on UACC-62 and in the experiment with UO-31 was > 100 µM (inactive) in each case.
As to `O=C(c1ccc(-c2ccccc2)cc1)N(Cc1cccnc1)C(=S)N(Cc1cccnc1)C(=O)c1ccc(-c2ccccc2)cc1`, the GI50 in the experiment with 786-0, with A498, in the experiment with A549, in the experiment on CCRF-CEM, in the experiment with EKVX and with LOX IMVI was > 100 µM (inactive) each time. Moreover, the GI50 is 81.3 µM (inactive) in the experiment on M14; 54.6 µM (inactive) in the experiment with MDA-MB-435; > 100 µM (inactive) in the experiment on Malme-3M; 76.2 µM (inactive) in the experiment on NCI-H226; > 100 µM (inactive) in the experiment with NCI-H23; > 100 µM (inactive) in the experiment on NCI/ADR-RES. Besides, the GI50 with OVCAR-4 is 32.7 µM (inactive); in the experiment on OVCAR-8, > 100 µM (inactive); with SK-MEL-28 it was > 100 µM (inactive); with SK-MEL-2, > 100 µM (inactive); in the experiment with SN12C it was > 100 µM (inactive); with TK-10, > 100 µM (inactive). In addition, the results for the GI50 with UACC-62 and in the experiment with UO-31 were > 100 µM (inactive) and 51.9 µM (inactive), respectively.
For `c1ccc(SCCc2ccncc2)cc1`, the GI50 in the experiment on 786-0 is > 100 µM (inactive); in the experiment with A498, 70 µM (inactive); in the experiment on A549, 84.5 µM (inactive); in the experiment with CCRF-CEM it was 31.3 µM (inactive); in the experiment with EKVX, 46 µM (inactive); in the experiment with LOX IMVI, > 100 µM (inactive). In addition, the GI50 was 75 µM (inactive) in the experiment on M14; > 100 µM (inactive) in the experiment with MDA-MB-435; > 100 µM (inactive) in the experiment with Malme-3M; 77.1 µM (inactive) in the experiment on NCI-H226; 67.6 µM (inactive) with NCI-H23; 58.7 µM (inactive) with NCI/ADR-RES. For the same compound, the GI50 was 98.2 µM (inactive) in the experiment on OVCAR-4; > 100 µM (inactive) with OVCAR-8; > 100 µM (inactive) with SK-MEL-28; > 100 µM (inactive) in the experiment on SK-MEL-2; > 100 µM (inactive) with SN12C; > 100 µM (inactive) in the experiment on TK-10. Besides, the GI50 is > 100 µM (inactive) in the experiment with UACC-62 and 45.4 µM (inactive) with UO-31.
For `Cc1ccc(S(=O)(=O)N2CC(CCN)c3ccccc32)cc1` (centres undefined), the GI50 was 3.89 µM (inactive) with 786-0; 10.7 µM (inactive) with A498; 9.51 µM (inactive) in the experiment with A549; > 100 µM (inactive) in the experiment on CCRF-CEM; 13 µM (inactive) with EKVX; 2.99 µM (inactive) in the experiment on LOX IMVI. Also, the GI50 with M14 is 2.29 µM (inactive); in the experiment with MDA-MB-435, 1.53 µM (inactive); in the experiment on Malme-3M, 4 µM (inactive); with NCI-H226, 2.45 µM (inactive); in the experiment on NCI-H23, 6.38 µM (inactive); in the experiment with NCI/ADR-RES, 5.61 µM (inactive). Besides, the GI50 in the experiment with OVCAR-4 is 17.5 µM (inactive); in the experiment on OVCAR-8, 3.59 µM (inactive); in the experiment with SK-MEL-28, 5.16 µM (inactive); in the experiment with SK-MEL-2 it was 4.28 µM (inactive); in the experiment on SN12C, 2.72 µM (inactive); with TK-10, 7.89 µM (inactive). The GI50 with UACC-62 is 3.68 µM (inactive); with UO-31, 4.61 µM (inactive).
`COc1ccc2c(c1)C(=O)[C@@](Nc1ccc(C=O)cc1)(OC)[C@@](OC)(c1ccc([N+](=O)[O-])cc1)O2`: the GI50 in the experiment with 786-0 is > 10 µM (inactive); in the experiment with A498, > 10 µM (inactive); with A549, 7.67 µM (inactive); in the experiment on CCRF-CEM it was > 10 µM (inactive); with EKVX, > 10 µM (inactive); in the experiment on LOX IMVI, > 10 µM (inactive). In addition, the GI50 in the experiment on M14 is > 10 µM (inactive); with MDA-MB-435 it was > 10 µM (inactive); with Malme-3M, > 10 µM (inactive); in the experiment on NCI-H226, 6.12 µM (inactive); in the experiment with NCI-H23, > 10 µM (inactive); in the experiment on NCI/ADR-RES, > 10 µM (inactive). For the same compound, the GI50 in the experiment on OVCAR-4, with OVCAR-8, with SK-MEL-28, with SK-MEL-2, with SN12C and in the experiment with TK-10 was > 10 µM (inactive) in each case. For the same compound, the GI50 in the experiment with UACC-62 and in the experiment on UO-31 was > 10 µM (inactive) each time.
On to `CCOC(=O)c1c(N2CCCC2)[nH]c(=O)c(C(c2ccco2)c2c(O)c(C(=O)OCC)c(N3CCCC3)[nH]c2=O)c1O`, for which the GI50 is 29.2 µM (inactive) with 786-0; > 100 µM (inactive) in the experiment with A498; > 100 µM (inactive) with A549; > 100 µM (inactive) with CCRF-CEM; > 100 µM (inactive) in the experiment on EKVX; 37.4 µM (inactive) in the experiment on LOX IMVI. In addition, the GI50 with M14, in the experiment on MDA-MB-435, in the experiment on Malme-3M, with NCI-H226, with NCI-H23 and in the experiment with NCI/ADR-RES was > 100 µM (inactive) each time. The GI50 is > 100 µM (inactive) with OVCAR-4; 92.9 µM (inactive) in the experiment on OVCAR-8; > 100 µM (inactive) with SK-MEL-28; > 100 µM (inactive) in the experiment on SK-MEL-2; > 100 µM (inactive) with SN12C; > 100 µM (inactive) with TK-10. The GI50 with UACC-62 and with UO-31 was > 100 µM (inactive) each time.
For the compound `Cc1ncc(C/N=C/c2ccc(Cl)cc2)c(N)n1`, the GI50 in the experiment on 786-0, in the experiment on A498, with A549, with CCRF-CEM, with EKVX and with LOX IMVI was > 100 µM (inactive) throughout. In addition, the GI50 in the experiment with M14, in the experiment on MDA-MB-435, with Malme-3M, in the experiment on NCI-H226, in the experiment on NCI-H23 and in the experiment on NCI/ADR-RES was > 100 µM (inactive) in each case. Moreover, the GI50 with OVCAR-4, with OVCAR-8, in the experiment on SK-MEL-28, in the experiment on SK-MEL-2, with SN12C and in the experiment on TK-10 was > 100 µM (inactive) in each case. The GI50 with UACC-62 and in the experiment with UO-31 was > 100 µM (inactive) throughout.
For `CCc1nc2cc(/N=N/c3c(O)ccc4ccccc34)ccc2[nH]1`, the GI50 in the experiment with 786-0 was 16.1 µM (inactive); in the experiment on A498, 21.5 µM (inactive); in the experiment with A549, 21.4 µM (inactive); with CCRF-CEM it was 3.47 µM (inactive); in the experiment on EKVX, 19.1 µM (inactive); in the experiment on LOX IMVI, 10.1 µM (inactive). Besides, the GI50 in the experiment with M14 is 19.6 µM (inactive); in the experiment on MDA-MB-435 it was 19.7 µM (inactive); in the experiment with Malme-3M, 18.3 µM (inactive); with NCI-H226, 22.3 µM (inactive); with NCI-H23, 21.2 µM (inactive); in the experiment on NCI/ADR-RES, 22.3 µM (inactive). Further, the GI50 in the experiment with OVCAR-4 was 14 µM (inactive); in the experiment on OVCAR-8, 14.5 µM (inactive); in the experiment on SK-MEL-28 it was 20.3 µM (inactive); in the experiment on SK-MEL-2 it was 19.8 µM (inactive); with SN12C, 20.5 µM (inactive); with TK-10, 18.4 µM (inactive). The GI50 in the experiment on UACC-62 was 18.2 µM (inactive); with UO-31 it was 18.8 µM (inactive).
For the compound `CCCCOCCOC1=CC(=O)c2c(O)ccc(O)c2C1=O`, the GI50 was 1.67 µM (inactive) in the experiment on 786-0; 1.64 µM (inactive) in the experiment on A498; 1.75 µM (inactive) in the experiment on A549; 1.22 µM (inactive) in the experiment with CCRF-CEM; 1.69 µM (inactive) in the experiment with EKVX; 1.73 µM (inactive) with LOX IMVI. Moreover, the GI50 was 1 µM (active) in the experiment with M14; 0.185 µM (active) in the experiment with MDA-MB-435; 0.24 µM (active) in the experiment on Malme-3M; 1.72 µM (inactive) in the experiment with NCI-H226; 1.7 µM (inactive) with NCI-H23; 2.12 µM (inactive) in the experiment with NCI/ADR-RES. In addition, the GI50 in the experiment with OVCAR-4 is 1.92 µM (inactive); in the experiment with SK-MEL-28, 1.62 µM (inactive); in the experiment with SK-MEL-2, 1.69 µM (inactive); in the experiment on SN12C, 1.66 µM (inactive); with TK-10, 3.1 µM (inactive); with UACC-62 it was 1.51 µM (inactive). In addition, the GI50 in the experiment on UO-31 is 1.64 µM (inactive).
